# How the values were obtained:
# [1] = Form B deoxycytidine 12-month stability study (Example 4); type: physicochemical; conditions: four lots; long-term storage 25±2° C./60±5% relative humidity and accelerated storage 40±2° C./75±5% relative humidity; measured at 3, 6, 9 and 12 months
# Procedure: A study was conducted to determine the stability of Form B deoxycytidine prepared by the methods in Example 1 over a 12-month period. Four lots of material were studied: (1) and (2) were packaged in a polyethylene (PE) bag sealed with a cable tie, (3) was packed in a PE bag with silica gel sealed with a cable tie, and (4) was packaged in a PE drum sealed with a cap. […]
# All attributes were measured initially (0 months) to confirm compliance with the standards above. Appearance, IR, HPLC and water content were then measured at 3, 6, 9 and 12 months to confirm compliance. Microbial content was measured again at 12 months.
# [2] = Stability of Form B by XRPD pattern after storage (no conversion to Form A); type: physicochemical
# Description: “Stability”, as used herein, can be measured by confirming the Form B XRPD pattern of the material after a given storage time. Conversion of Form B to Form A deoxycytidine, as determined by)(RFD, indicates instability. Stability can also be measured by confirming compliance with the test attribute standards as outlined in Example 4. Test attributes include physical appearance, IR trace, HPLC trace for active and impurities, water content, residual solvent content, elemental impurities and microbial growth. One or more of these attributes can be measured after storage over a given period of time, e.g. 6 months, 12 months or more, and under various conditions, e.g. 25±2° C./60±5% relative humidity or 40±2° C./75±5% relative humidity).
# XRPD data for a mixture of A and B dC isoforms (2DC (A+B mix)), the B isoform produced in the small-scale manufacturing run (2DC(7)/S-P-17001 initial) and the isolated A isoform is provided in Table 2. The stability Form B was confirmed by determining the XRPD after 12 months of storage (2DC(7)/S-P-17001 12 month).
smiles,measurement,setting,value
"Nc1ccn([C@H]2C[C@H](O)[C@@H](CO)O2)c(=O)n1 [Form B deoxycytidine, Deoxycytidine (2′-Deoxycytidine, dC)]","changes in test attributes (appearance, IR, HPLC, water content, microbial content) from initial to 12 months",[1],no significant changes
same,"stability of Form B, XRPD pattern after storage","[2]; after 12 months of storage, lot 2DC(7)/S-P-17001, 4 kg scale",confirmed
same,time for which the form is stable,[2]; stored in a sealed container at e.g. room temperature,at least 6 months

# Reference: US11649259B2, “Polymorphic forms of deoxycytidine, compositions comprising the same and uses” (ZOGENIX MDS, INC., priority 2019, dated 2023)
